Test results published in the supplement of paper PMC10307832.

What was measured:
Experiment in all cases: relative viability (nuclei count vs DMSO), 5 days (fraction); higher = more cells survive
[1] = compound: O=C(CCCCCCNC(=O)c1cnc(N(c2ccccc2)c2ccccc2)nc1)NO [Ricolinostat] + Nc1ncn([C@H]2C[C@H](O)[C@@H](CO)O2)c(=O)n1 [Decitabine] (partner 2 µM)
Summary of the method: (§1)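 The day after seeding in 1536-well plates, lung cancer cell lines were treated by pin tool with a single drug, or with a fixed anchor-drug dose together with five library-drug doses (not always all listed) in √10 steps. After 5 days, a combined fix-and-stain solution (final 0.05% Triton X-100, 1% formaldehyde, 1 ug/ml Hoechst) was added. Nuclei counted on 4× images gave relative viability as treated counts over vehicle counts, reported as the median of duplicate plates.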

TGX 221 + Pemetrexed = compound: CC1=CN2C(=O)C=C(N=C2C(=C1)C(C)NC3=CC=CC=C3)N4CCOCC4 [TGX 221] + Nc1nc2[nH]cc(CCc3ccc(C(=O)N[C@@H](CCC(=O)O)C(=O)O)cc3)c2c(=O)[nH]1 [Pemetrexed] (partner 0.2 µM)
Summary of the method: as §1

[2] = compound: C1=CC=C(C(=C1)C2=CC=C(C=C2)C3=CSC4=C3C(=C(C(=O)N4)C#N)O)O + COc1cc2c(Oc3ccc(NC(=O)C4(C(=O)Nc5ccc(F)cc5)CC4)cc3F)ccnc2cc1OCCCN1CCOCC1 [Foretinib] (partner 0.25 µM)
Summary of the method: as §1

[3] = compound: O=C(CCCCCCNC(=O)c1cnc(N(c2ccccc2)c2ccccc2)nc1)NO [Ricolinostat] + Cc1cc(Nc2cc(N3CCN(C)CC3)nc(Sc3ccc(NC(=O)C4CC4)cc3)n2)n[nH]1 [Tozasertib] (partner 0.1 µM)
Summary of the method: as §1

Row | Cell Line | relative viability ([1]; first compound 0.08 µM) | relative viability ([1]; first compound 0.253 µM) | relative viability ([1]; first compound 0.8 µM) | relative viability ([1]; first compound 2.53 µM) | relative viability (TGX 221 + Pemetrexed; first compound 0.08 µM) | relative viability (TGX 221 + Pemetrexed; first compound 0.253 µM) | relative viability (TGX 221 + Pemetrexed; first compound 0.8 µM) | relative viability (TGX 221 + Pemetrexed; first compound 2.53 µM) | relative viability (TGX 221 + Pemetrexed; first compound 8 µM) | relative viability ([2]; first compound 0.253 µM) | relative viability ([2]; first compound 0.8 µM) | relative viability ([2]; first compound 2.53 µM) | relative viability ([2]; first compound 8 µM) | relative viability ([3]; first compound 0.08 µM) | relative viability ([3]; first compound 0.253 µM) | relative viability ([3]; first compound 0.8 µM) | relative viability ([3]; first compound 2.53 µM) | relative viability ([2]; first compound 0.08 µM)
1 | 201T | 0.843 | 0.847 | 0.873 | 0.887 | 0.324 | 0.373 | 0.318 | 0.351 | 0.374 | 1.12 | 1.23 | 0.988 | 0.954 | 0.909 | 0.932 | 0.829 | 0.612 | –
2 | A549 | 0.314 | 0.259 | 0.306 | 0.246 | – | – | – | – | – | 1.07 | 0.971 | 0.756 | 0.649 | – | – | – | – | 0.688
3 | A-427 | 0.547 | 0.591 | 0.559 | 0.558 | 0.992 | 0.987 | 0.963 | 0.989 | 0.953 | 1.18 | 1.19 | 1.1 | 1.18 | – | 0.198 | 0.182 | 0.174 | 1.16
4 | ABC-1 | 0.829 | 1.03 | 0.989 | 1.03 | – | – | – | – | – | 1.13 | 1.05 | 0.951 | 1.09 | 0.215 | 0.203 | 0.229 | 0.18 | 1
5 | BEN | 0.578 | 0.78 | 0.567 | 0.581 | 0.728 | 0.715 | 0.727 | 0.645 | 0.775 | 0.611 | 0.668 | 0.646 | 0.634 | 0.539 | 0.558 | 0.534 | 0.517 | 0.503
6 | CAL-12T | – | – | – | – | 1.12 | 0.976 | 1.21 | 1.25 | 1.17 | 1.13 | 1.2 | 1.19 | 1.01 | 0.326 | 0.261 | 0.284 | 0.196 | 0.951
7 | COR-L23 | 0.402 | 0.493 | 0.358 | 0.332 | 0.22 | 0.198 | 0.186 | 0.218 | 0.189 | 1.08 | 1.13 | 1.07 | 0.909 | 0.207 | 0.193 | 0.162 | 0.121 | 0.966
8 | COR-L 105 | 0.675 | 0.65 | 0.7 | 0.669 | 1.1 | 1.08 | 0.857 | 1 | 0.81 | 1.33 | 0.997 | 0.943 | 0.994 | – | 0.325 | 0.3 | 0.352 | 1.24
9 | Calu-6 | – | – | – | – | – | – | – | – | – | 0.967 | 0.909 | 0.94 | 0.773 | – | – | – | – | 0.985
